The values below come from publication PMC8401265, “Evolutionary Diversification of Host-Targeted Bartonella Effectors Proteins Derived from a Conserved FicTA Toxin-Antitoxin Module” (Microorganisms, 2021).

The structures appear in SMILES notation.

The experiment addresses T1, Btr_BepC FIC (Bartonella tribocorum, UniProt A9IWP7).
T1 construct: gene bepC
The experiment is described as follows: X-ray crystallography. Type of experiment: binding. To be noted: active site; pH 6.5 crystals; lysine K150 contacts alpha-phosphate.

T1 sequence (A9IWP7 entry or part of it): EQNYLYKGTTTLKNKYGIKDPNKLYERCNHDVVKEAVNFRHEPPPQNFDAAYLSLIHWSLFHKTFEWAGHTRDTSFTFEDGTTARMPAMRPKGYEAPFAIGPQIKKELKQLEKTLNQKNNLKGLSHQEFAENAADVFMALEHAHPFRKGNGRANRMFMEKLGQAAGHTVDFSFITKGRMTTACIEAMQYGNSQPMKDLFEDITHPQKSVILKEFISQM

Regarding `Nc1ncnc2c1ncn2[C@@H]1O[C@H](COP(=O)(O)OP(=O)(O)NP(=O)(O)O)[C@@H](O)[C@H]1O` [AMPPNP], the X-ray crystallography result is “the complex of Btr_BepC with AMPPNP (Figure 9A) demonstrates competent tri-phosphate nucleotide binding”.
